Legend:
Experiment in all cases: relative viability (nuclei count vs DMSO), 5 days (fraction); higher = more cells survive
Motesanib + Crizotinib = compound: CC1(C)CNc2cc(NC(=O)c3cccnc3NCc3ccncc3)ccc21 [Motesanib] + C[C@@H](Oc1cc(-c2cnn(C3CCNCC3)c2)cnc1N)c1c(Cl)ccc(F)c1Cl [Crizotinib] (partner 1 µM)
In short: (§1)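 Lung cancer cell lines in 1536-well plates got either a single drug or a fixed anchor-drug dose together with five library-drug doses (not always all listed) in √10 steps, by pin tool, on the day after seeding. Nuclei were counted after 5 days, and relative viability is the treated-to-vehicle ratio of nuclei counts. Values are medians of duplicate plates.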

[1] = compound: C[C@@]1(C(=O)Nc2ccc(F)nc2)CCCN1c1nc(Nc2cc(C3CC3)n[nH]2)c2cccn2n1 + Cc1nc(Nc2ncc(C(=O)Nc3c(C)cccc3Cl)s2)cc(N2CCN(CCO)CC2)n1 [Dasatinib] (partner 0.075 µM)
In short: as §1

[2] = compound: C[C@@]1(C(=O)Nc2ccc(F)nc2)CCCN1c1nc(Nc2cc(C3CC3)n[nH]2)c2cccn2n1 + CCNC(=O)c1noc(-c2cc(C(C)C)c(O)cc2O)c1-c1ccc(CN2CCOCC2)cc1 [Luminespib] (partner 0.01 µM)
In short: as §1

[3] = compound: C[C@@]1(C(=O)Nc2ccc(F)nc2)CCCN1c1nc(Nc2cc(C3CC3)n[nH]2)c2cccn2n1 + CC1(C)CCC(c2ccc(Cl)cc2)=C(CN2CCN(c3ccc(C(=O)NS(=O)(=O)c4ccc(N[C@H](CCN5CCOCC5)CSc5ccccc5)c(S(=O)(=O)C(F)(F)F)c4)cc3)CC2)C1 [Navitoclax] (partner 0.5 µM)
In short: as §1

Cell Line | relative viability (Motesanib + Crizotinib; first compound 0.01 µM) | relative viability (Motesanib + Crizotinib; first compound 0.03162 µM) | relative viability (Motesanib + Crizotinib; first compound 0.1 µM) | relative viability (Motesanib + Crizotinib; first compound 0.3162 µM) | relative viability (Motesanib + Crizotinib; first compound 1 µM) | relative viability ([1]; first compound 0.04 µM) | relative viability ([1]; first compound 0.1265 µM) | relative viability ([1]; first compound 0.4 µM) | relative viability ([1]; first compound 1.265 µM) | relative viability ([2]; first compound 0.04 µM) | relative viability ([2]; first compound 0.1265 µM) | relative viability ([2]; first compound 0.4 µM) | relative viability ([2]; first compound 1.265 µM) | relative viability ([3]; first compound 0.04 µM) | relative viability ([3]; first compound 0.4 µM) | relative viability ([3]; first compound 1.265 µM) | relative viability ([3]; first compound 0.1265 µM)
NCI-H1993 | 0.964 | 0.848 | 0.842 | 0.824 | 0.865 | 0.523 | 0.454 | 0.356 | 0.512 | 0.535 | 0.476 | 0.275 | 0.555 | 0.692 | 0.671 | 0.716 | 
NCI-H2009 | 0.965 | 1.09 | 0.928 | 1.01 | 0.943 | 0.279 | 0.224 | 0.166 | 0.154 | 1.11 | 1.08 | 1.01 | 1.07 | 1.26 | 1.11 | 1.29 | 1.23
NCI-H2023 | 0.711 | 0.592 | 0.747 | 0.571 | 0.711 | 0.407 | 0.165 | 0.154 | 0.105 | 0.58 | 0.336 | 0.37 | 0.192 | 0.89 | 0.654 | 0.702 | 0.703
NCI-H2085 | 0.924 | 0.846 | 1.05 | 0.807 | 0.756 | 0.289 | 0.309 | 0.187 | 0.178 | 0.431 | 0.405 | 0.365 | 0.54 | 1.22 | 0.984 | 1.05 | 1.07
NCI-H2087 | 0.686 | 0.983 | 0.951 | 0.878 | 0.93 | 0.727 | 0.568 | 0.508 | 0.389 | 0.122 | 0.175 | 0.123 | 0.145 | 0.882 | 0.854 | 0.931 | 0.969
NCI-H2126 | 1.07 | 1 | 0.999 | 1.03 | 1.09 | 0.346 | 0.242 | 0.262 | 0.294 | 0.733 | 0.429 | 0.542 | 0.52 | 0.669 | 0.591 | 0.761 | 0.725
NCI-H2170 | 1.16 | 1.19 | 1.15 | 1.13 | 1.18 | 0.572 | 0.564 | 0.47 | 0.414 | 0.521 | 0.505 | 0.45 | 0.521 | 0.514 | 0.518 | 0.652 | 0.652
NCI-H2228 | 0.386 | 0.424 | 0.619 | 0.431 | 0.571 | 0.414 | 0.278 | 0.22 | 0.208 | 0.121 | 0.121 | 0.15 | 0.116 | 0.561 | 0.723 | 0.633 | 0.762
NCI-H2347 | 0.783 | 0.691 | 0.715 | 0.745 | 0.631 | 0.289 | 0.288 | 0.343 | 0.189 | 0.706 | 0.448 | 0.206 | 0.288 | 0.777 | 0.661 | 0.846 | 0.544
NCI-H2405 | 0.8 | 0.847 | 0.875 | 0.864 | 0.905 | 0.211 | 0.177 | 0.185 | 0.186 | 0.549 | 0.489 | 0.374 | 0.432 | 0.813 | 0.584 | 0.597 | 0.635
NCI-H3122 | 0.253 | 0.27 | 0.285 | 0.295 | 0.267 | 0.581 | 0.786 | 0.348 | 0.677 | 0.0763 | 0.0863 | 0.0793 | 0.0682 | 1.05 | 1.06 | 1.02 | 1.06
PC-3 [JPC-3] | 0.997 | 1.03 | 1.02 | 1.01 | 1.01 | 1.09 | 0.94 | 0.891 | 0.787 | 0.642 | 0.646 | 0.561 | 0.8 | 0.777 | 0.789 | 0.743 | 0.716
PC-14 | 0.944 | 0.965 | 0.898 | 0.883 | 0.969 | 0.281 | 0.0303 | 0.0906 | 0.0823 | 0.164 |  | 0.12 | 0.175 | 0.99 | 0.959 | 0.941 | 0.69
RERF-LC-KJ | 0.87 | 0.762 | 0.878 | 0.768 | 0.879 | 0.577 | 0.436 | 0.42 | 0.385 | 1.15 | 0.964 | 1.09 | 0.717 | 0.842 | 0.846 | 0.592 | 0.579
SK-LU-1 | 0.961 | 0.935 | 0.826 | 0.897 | 0.988 | 0.116 | 0.112 | 0.0979 | 0.0968 | 0.208 | 0.191 | 0.184 | 0.172 | 0.958 | 0.816 | 0.42 | 0.689
SK-MES-1 | 0.983 | 0.986 | 1.01 | 1.05 | 0.977 | 0.27 | 0.244 | 0.159 | 0.153 | 0.666 | 0.664 | 0.763 | 0.609 | 1.3 |  | 1.1 | 0.995
SW 1573 | 0.686 | 0.887 | 0.913 | 0.746 | 0.973 | 0.494 | 0.275 | 0.213 | 0.114 | 0.224 | 0.185 | 0.182 | 0.143 | 0.875 | 0.655 | 0.8 | 0.471
